According to BigSolDB 2.1:

Oc1ccc(OCc2ccccc2)cc1
solubility (mole fraction)
Settings | 283.15 K | 288.15 K | 293.15 K | 298.15 K | 303.15 K | 308.15 K | 313.15 K
in 1,4-dioxane | – | 0.0903 | 0.131 | 0.19 | 0.258 | 0.342 | 0.435
in acetonitrile | 0.036 | 0.0447 | 0.0546 | 0.0669 | 0.0821 | 0.101 | 0.125
in cyclohexane | 0.000542 | 0.000933 | 0.00156 | 0.00261 | 0.00396 | 0.0058 | 0.00802
in ethanol | 0.0319 | 0.0396 | 0.0484 | 0.0595 | 0.0735 | 0.0905 | 0.111
in ethyl acetate | 0.0773 | 0.129 | 0.201 | 0.293 | 0.399 | 0.519 | 0.632
in isopropanol | 0.0317 | 0.0383 | 0.0476 | 0.0585 | 0.0736 | 0.0921 | 0.116
in methanol | 0.0381 | 0.0476 | 0.0593 | 0.0739 | 0.0908 | 0.111 | 0.136
in n-butanol | 0.0227 | 0.0282 | 0.0346 | 0.0434 | 0.0543 | 0.0666 | 0.0835
in n-hexane | 0.000327 | 0.000453 | 0.000749 | 0.00108 | 0.00161 | 0.00226 | 0.00313
in n-octanol | 0.00719 | 0.0101 | 0.0136 | 0.0171 | 0.0224 | 0.0289 | 0.0355
in n-propanol | 0.0287 | 0.0352 | 0.0428 | 0.0521 | 0.0642 | 0.0794 | 0.0994
in water | 5e-06 | 7e-06 | 9e-06 | 1.3e-05 | 1.7e-05 | 2.3e-05 | 3e-05
